This passage reports IC50 results from patent US20240409556A1, “BENZOPIPERAZINE AND RELATED ANALOGS FOR INHIBITING YAP/TAZ-TEAD” (Springworks Therapeutics, Inc., priority 2023, published 2024).

The subject of one test is YAP/TAZ-TEAD transcription. The test is described as follows: Reporter gene assay for measuring the inhibition of YAP/TAZ-TEAD transcription (TEAD-responsive element luciferase reporter in Hek293T cells). It counts as cell-based. To be noted: 24 hours incubation. The method in brief: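 HEK293T cells transiently transfected with a TEAD-responsive luciferase reporter were exposed to compounds for 24 h at 37° C/5% CO2, then luminescence was read. Percent inhibition normalised to vehicle (0%) and positive-control inhibitor (100%); IC50 derived.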
A general note: Reporter assays use an easily measured gene product as a stand-in for the process of interest.
In general, IC50 refers to the concentration at which inhibition is half-maximal. A high value points to a need for much substance. The compound `CC(=O)N1CCN2c3ncccc3N(c3ccc(C(F)(F)F)cn3)CC2C1` (stereo not drawn) [compound 53, 1-(5-(5-(trifluoromethyl)pyridin-2-yl)-5,6,6a,7,9,10-hexahydro-8H-pyrazino[1,2-a]pyrido[3,2-e]pyrazin-8-yl)ethan-1-one] showed an IC50 of under 1000 nM. In turn, `COc1ccc2c(n1)OC(CNC(C)=O)CN2c1ccc(C(F)(F)F)cc1` (stereo not drawn) [compound 73, N-((6-methoxy-1-(4-(trifluoromethyl)phenyl)-2,3-dihydro-1H-pyrido[2,3-b][1,4]oxazin-3-yl)methyl)acetamide] had an IC50 of under 1000 nM.

`CC(=O)NCC1CN(c2ccc(C(F)(F)F)cc2)c2cc(Cl)cnc2O1` (stereo not drawn) [compound 75, N-((7-chloro-1-(4-(trifluoromethyl)phenyl)-2,3-dihydro-1H-pyrido[2,3-b][1,4]oxazin-3-yl)methyl)acetamide] came in with an IC50 of under 1000 nM. Same read-out and setting: the figure for `CC(=O)N1CC(=O)N2c3ccccc3N(c3ccc(C(F)(F)F)cc3)CC2C1` (stereo not drawn) [compound 79] is under 1000 nM. Same read-out and setting: the figure for `CC(=O)NCC1CN(c2ccc(C(F)(F)F)cc2)c2ccc(C3CC3)nc2O1` (stereo not drawn) [compound 81, N-((6-cyclopropyl-1-(4-(trifluoromethyl)phenyl)-2,3-dihydro-1H-pyrido[2,3-b][1,4]oxazin-3-yl)methyl)acetamide] is under 1000 nM.

The same test, now with this note: Homo sapiens, HEK-293T, 24 h, 24 hours incubation.
In turn, `CC(=O)N1CCN2c3nccnc3N(c3ccc(C(F)(F)F)cc3)CC2C1` (stereo not drawn) [compound 40, 1-(5-(4-(trifluoromethyl)phenyl)-5,6,6a,7,9,10-hexahydro-8H-dipyrazino[1,2-a:2′,3′-e]pyrazin-8-yl)ethan-1-one] returned an IC50 of under 1000 nM.

`C=CC(=O)N1CCN2c3nccnc3N(c3ccc(C(F)(F)F)cc3)CC2C1` (stereo not drawn) [compound 41, 1-(5-(4-(trifluoromethyl)phenyl)-5,6,6a,7,9,10-hexahydro-8H-dipyrazino[1,2-a:2′,3′-e]pyrazin-8-yl)prop-2-en-1-one] showed an IC50 of under 1000 nM. On the same count and under the same terms, the figure for `C=CC(=O)N1CCN2C(C1)CN(c1ccc(C(F)(F)F)cc1)C1C2C1(Cl)Cl` (stereo not drawn) [compound 43, 1-(1,1-dichloro-2-(4-(trifluoromethyl)phenyl)octahydrocyclopropa[e]pyrazino[1,2-a]pyrazin-5(1H)-yl)prop-2-en-1-one] is under 1000 nM; for `CC(=O)N1CCN2C(=O)CN(c3ccc(C(F)(F)F)cc3)CC2C1` (stereo not drawn) [compound 44, 8-acetyl-2-(4-(trifluoromethyl)phenyl)octahydro-4H-pyrazino[1,2-a]pyrazin-4-one] it is over 10000 nM. Still for that read-out and setting: under `CNS(=O)(=O)N1CCN2c3ncccc3N(c3ccc(C(F)(F)F)cc3)CC2C1` (stereo not drawn) [compound 45, N-methyl-5-(4-(trifluoromethyl)phenyl)-5,6,6a,7,9,10-hexahydro-8H-pyrazino[1,2-a]pyrido[3,2-e]pyrazine-8-sulfonamide] stands under 1000 nM; under `O=C(C1CC1)N1CCN2c3ncccc3N(c3ccc(C(F)(F)F)cc3)CC2C1` (stereo not drawn) [compound 46, Cyclopropyl(5-(4-(trifluoromethyl)phenyl)-5,6,6a,7,9,10-hexahydro-8H-pyrazino[1,2-a]pyrido[3,2-e]pyrazin-8-yl)methanone], under 1000 nM; under `CC(C)C(=O)N1CCN2c3ncccc3N(c3ccc(C(F)(F)F)cc3)CC2C1` (stereo not drawn) [compound 47, 2-methyl-1-(5-(4-(trifluoromethyl)phenyl)-5,6,6a,7,9,10-hexahydro-8H-pyrazino[1,2-a]pyrido[3,2-e]pyrazin-8-yl)propan-1-one], under 1000 nM.

Compound `C=CC(=O)NCC1CN(c2ccc(C(F)(F)F)cc2)c2cccnc2O1` (stereo not drawn) [compound 48, N-((1-(4-(trifluoromethyl)phenyl)-2,3-dihydro-1H-pyrido[2,3-b][1,4]oxazin-3-yl)methyl)acrylamide] yielded an IC50 of under 1000 nM. On the same count and under the same terms, under `CC(=O)NCC1CN(c2ccc(C(F)(F)F)cc2)c2cccnc2O1` (stereo not drawn) [compound 49, N-((1-(4-(trifluoromethyl)phenyl)-2,3-dihydro-1H-pyrido[2,3-b][1,4]oxazin-3-yl)methyl)acetamide] stands under 1000 nM. Compound `FC(F)(F)c1ccc(N2CCN(Cc3nnc[nH]3)c3ccccc32)cc1` [compound 50, 1-((4H-1,2,4-triazol-3-yl)methyl)-4-(4-(trifluoromethyl)phenyl)-1,2,3,4-tetrahydroquinoxaline] returned an IC50 of under 1000 nM.

`CNC(=O)N1CCN2c3ncccc3N(c3ccc(C(F)(F)F)cc3)CC2C1` (stereo not drawn) [compound 52, N-methyl-5-(4-(trifluoromethyl)phenyl)-5,6,6a,7,9,10-hexahydro-8H-pyrazino[1,2-a]pyrido[3,2-e]pyrazine-8-carboxamide] displayed an IC50 of under 1000 nM.

Compound `CC(=O)N1CCN2c3ncccc3N(c3ccc(C(F)(F)F)nc3)CC2C1` (stereo not drawn) [compound 54, 1-(5-(6-(trifluoromethyl)pyridin-3-yl)-5,6,6a,7,9,10-hexahydro-8H-pyrazino[1,2-a]pyrido[3,2-e]pyrazin-8-yl)ethan-1-one] gave an IC50 of 1000 to 10000 nM. Still for that read-out and setting: the figure for `CC(=O)N1CC(N2CCN(c3ccc(C(F)(F)F)cc3)c3ccccc32)C1` [compound 56, 1-(3-(4-(4-(trifluoromethyl)phenyl)-3,4-dihydroquinoxalin-1(2H)-yl)azetidin-1-yl)ethan-1-one] is under 1000 nM; for `CC(=O)NCCN1CCN(c2ccc(C(F)(F)F)cc2)c2ccccc21` [compound 57, N-(2-(4-(4-(trifluoromethyl)phenyl)-3,4-dihydroquinoxalin-1(2H)-yl)ethyl)acetamide] it is under 1000 nM; for `CC(=O)NCC1CN(c2ccc(C(F)(F)F)cc2)c2cccnc2S1(=O)=O` (stereo not drawn) [compound 58, N-((4,4-dioxido-1-(4-(trifluoromethyl)phenyl)-2,3-dihydro-1H-pyrido[2,3-b][1,4]thiazin-3-yl)methyl)acetamide] it is over 10000 nM. Same read-out and setting: the figure for `CC(=O)N1CC2CN(c3ccc(C(F)(F)F)cc3)c3cccnc3N2C1=O` (stereo not drawn) [compound 59, 8-acetyl-5-(4-(trifluoromethyl)phenyl)-6,6a,7,8-tetrahydroimidazo[1,5-a]pyrido[3,2-e]pyrazin-9(5H)-one] is over 10000 nM; for `Cn1cncc1CN1CCN(c2ccc(C(F)(F)F)cc2)c2ccccc21` [compound 60, 1-((1-methyl-1H-imidazol-5-yl)methyl)-4-(4-(trifluoromethyl)phenyl)-1,2,3,4-tetrahydroquinoxaline] it is under 1000 nM; for `Cc1ncc(CN2CCN(c3ccc(C(F)(F)F)cc3)c3ccccc32)[nH]1` [compound 61, 1-((2-methyl-1H-imidazol-5-yl)methyl)-4-(4-(trifluoromethyl)phenyl)-1,2,3,4-tetrahydroquinoxaline] it is under 1000 nM.

For `FC(F)(F)c1ccc(N2CCN(Cc3ncc[nH]3)c3ccccc32)cc1` [compound 62, 1-((1H-imidazol-2-yl)methyl)-4-(4-(trifluoromethyl)phenyl)-1,2,3,4-tetrahydroquinoxaline], the IC50 was under 1000 nM. The same measure, in the same setting: the figure for `FC(F)(F)c1ccc(N2CCN(Cc3cccnc3)c3ccccc32)cc1` [compound 64, 1-(pyridin-3-ylmethyl)-4-(4-(trifluoromethyl)phenyl)-1,2,3,4-tetrahydroquinoxaline] is 1000 to 10000 nM; for `Cc1nc[nH]c1CN1CCN(c2ccc(C(F)(F)F)cc2)c2ccccc21` [compound 66, 1-((4-methyl-1H-imidazol-5-yl)methyl)-4-(4-(trifluoromethyl)phenyl)-1,2,3,4-tetrahydroquinoxaline] it is under 1000 nM; for `FC(F)(F)c1ccc(N2CCN(Cc3cnco3)c3ccccc32)cc1` [compound 67, 5-((4-(4-(trifluoromethyl)phenyl)-3,4-dihydroquinoxalin-1(2H)-yl)methyl)oxazole] it is under 1000 nM.

On to `O=S1(=O)CCN2c3ncccc3N(c3ccc(C(F)(F)F)cc3)CC2C1` (stereo not drawn) [compound 68, 5-(4-(trifluoromethyl)phenyl)-5,6,6a,7,9,10-hexahydropyrido[3′,2′:5,6]pyrazino[2,1-c][1,4]thiazine 8,8-dioxide], for which the IC50 fell in the range of 1000 to 10000 nM. The compound `FC(F)(F)c1ccc(N2CCN(Cc3ccno3)c3ccccc32)cc1` [compound 69, 5-((4-(4-(trifluoromethyl)phenyl)-3,4-dihydroquinoxalin-1(2H)-yl)methyl)isoxazole] gave an IC50 of over 10000 nM. The same measure, in the same setting: under `CS(=O)(=O)N1CCN2C(=O)CN(c3ccc(C(F)(F)F)cc3)CC2C1` (stereo not drawn) [compound 71, 8-(methylsulfonyl)-2-(4-(trifluoromethyl)phenyl)octahydro-4H-pyrazino[1,2-a]pyrazin-4-one] stands over 10000 nM; under `CNS(=O)(=O)N1CCN2C(=O)CN(c3ccc(C(F)(F)F)cc3)CC2C1` (stereo not drawn) [compound 72, N-methyl-6-oxo-8-(4-(trifluoromethyl)phenyl)octahydro-2H-pyrazino[1,2-a]pyrazine-2-sulfonamide], over 10000 nM. On the same count and under the same terms, the figure for `O=C(c1cn[nH]c1)N1CCN(c2ccc(C(F)(F)F)cc2)c2ccccc21` [compound 74, (1H-pyrazol-4-yl)(4-(4-(trifluoromethyl)phenyl)-3,4-dihydroquinoxalin-1(2H)-yl)methanone] is under 1000 nM; for `CC(=O)NCC1CN(c2ccc(C(F)(F)F)cc2)c2ccc(C(F)(F)F)nc2O1` (stereo not drawn) [compound 76, N-((6-(trifluoromethyl)-1-(4-(trifluoromethyl)phenyl)-2,3-dihydro-1H-pyrido[2,3-b][1,4]oxazin-3-yl)methyl)acetamide] it is 1000 to 10000 nM; for `CC(=O)NCC1CN(c2ccc(C(F)(F)F)cc2)c2ccc(C)nc2O1` (stereo not drawn) [compound 77, N-((6-methyl-1-(4-(trifluoromethyl)phenyl)-2,3-dihydro-1H-pyrido[2,3-b][1,4]oxazin-3-yl)methyl)acetamide] it is under 1000 nM. Still for that read-out and setting: under `CC(=O)NCC1CN(c2ccc(C(F)(F)F)cn2)c2cccnc2O1` (stereo not drawn) [compound 78, N-((1-(5-(trifluoromethyl)pyridin-2-yl)-2,3-dihydro-1H-pyrido[2,3-b][1,4]oxazin-3-yl)methyl)acetamide] stands 1000 to 10000 nM; under `O=C1CN(c2ccc(C(F)(F)F)cc2)c2ccccc2N1Cc1cn[nH]c1` [compound 80, 1-((1H-pyrazol-4-yl)methyl)-4-(4-(trifluoromethyl)phenyl)-3,4-dihydroquinoxalin-2(1H)-one], under 1000 nM.
